Results on one compound are retold here after ChEMBL document CHEMBL4602694, “Suppression of Drug-Resistant Non-Small-Cell Lung Cancer with Inhibitors Targeting Minichromosomal Maintenance Protein” (J Med Chem, 2020).

SMILES strings stand for the structures. Activity calls are given as the source filed them. The calls are words filed in the database; no cut-off is given here.

The target in data set [1] is DNA replication licensing factor MCM2 (Homo sapiens) (UniProt P49736). As to the kind of experiment: Induction of ubiquitination of MCM2 in human NCI-H1975 cells at 140 nM in presence of MG132 incubated for 48 hrs followed by MG132 addition and measured after 12 hrs by immunoblot analysis. It counts as cell-based.
Sequence of DNA replication licensing factor MCM2 (Homo sapiens) (P49736 whole entry): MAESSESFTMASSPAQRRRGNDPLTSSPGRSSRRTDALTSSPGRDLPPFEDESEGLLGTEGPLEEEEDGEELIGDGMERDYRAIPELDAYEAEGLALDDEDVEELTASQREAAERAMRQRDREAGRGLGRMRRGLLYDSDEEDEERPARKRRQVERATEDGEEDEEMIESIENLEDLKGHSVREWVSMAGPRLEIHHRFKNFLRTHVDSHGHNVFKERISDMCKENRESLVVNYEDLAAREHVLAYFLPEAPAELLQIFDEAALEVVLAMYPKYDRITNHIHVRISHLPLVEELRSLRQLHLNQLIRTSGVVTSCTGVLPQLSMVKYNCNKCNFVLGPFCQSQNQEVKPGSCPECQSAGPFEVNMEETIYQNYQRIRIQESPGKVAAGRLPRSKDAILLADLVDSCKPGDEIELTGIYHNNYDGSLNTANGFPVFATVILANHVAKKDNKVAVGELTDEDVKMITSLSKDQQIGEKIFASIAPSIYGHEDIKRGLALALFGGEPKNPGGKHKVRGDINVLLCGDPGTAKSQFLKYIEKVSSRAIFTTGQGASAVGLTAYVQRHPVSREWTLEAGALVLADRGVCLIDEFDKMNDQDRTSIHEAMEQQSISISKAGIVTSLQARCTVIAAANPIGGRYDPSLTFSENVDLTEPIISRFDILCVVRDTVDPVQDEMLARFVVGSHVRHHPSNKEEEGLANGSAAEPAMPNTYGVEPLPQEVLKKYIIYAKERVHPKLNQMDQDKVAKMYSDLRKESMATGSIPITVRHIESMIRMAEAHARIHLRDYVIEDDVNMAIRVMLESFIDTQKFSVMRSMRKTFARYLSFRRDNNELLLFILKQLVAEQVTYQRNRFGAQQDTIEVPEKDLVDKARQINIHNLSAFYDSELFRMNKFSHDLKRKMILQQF
The nature of data set [2]: Antiproliferative activity against human PC9IR cells assessed as reduction in cell viability incubated for 72 hrs by SRB assay. The data set is classed as functional, cell-based.
A short description of data set [3]: Toxicity in athymic nude BALB/c mouse xenografted with human NCI-H1975 cells assessed as reduction in body weight at 1 or 4 mg/kg, ip administered for 4 weeks. It counts as organism-based. The note with it: in vivo, 672 h.
In data set [4] the test system is NCI-H1975. Put plainly: Induction of apoptosis in human NCI-H1975 cells assessed as increase in cleaved caspase 8 level at 140 nM incubated upto 72 hrs by immunoblotting analysis. The data set is classed as functional, cell-based. (In general: Immunoblotting shows a protein as a band on a membrane.)
The test system of data set [5] is NCI-H1975. Put plainly: Cell cycle arrest in human NCI-H1975 cells assessed as accumulation in G2/M phase at 140 nM incubated for 72 hrs by propidium iodide base flow cytometry analysis (reference value: 17 %). The data set is classed as functional. (In general: Flow cytometry measures light scatter and fluorescence of single cells or particles in a stream.)
The subject of data set [6] is NCI-H1975. As to the kind of experiment: Cell cycle arrest in human NCI-H1975 cells assessed as replication fork at 140 nM incubated for 48 hrs by DAPI staining based immunofluorescence microscopy (reference value: 176.8 +/- 8.7). It counts as functional.
Data set [7] has as its target DNA replication licensing factor MCM2 (Homo sapiens) (UniProt P49736). Put plainly: Induction of ubiquitination of MCM2 in human NCI-H1975 cells incubated for 72 hrs by immunoblot analysis (reference value: 1). It counts as cell-based.
The test system of data set [8] is NCI-H1975. As to the kind of experiment: Cell cycle arrest in human NCI-H1975 cells assessed as accumulation in G1/S phase at 140 nM incubated for 48 hrs by DAPI staining based immunofluorescence microscopy. The data set is classed as functional.
Data set [9] addresses DNA replication licensing factor MCM2 (Homo sapiens) (UniProt P49736). As to the kind of experiment: Induction of ubiquitination of MCM2 in human NCI-H1975 cells in presence of MG132 incubated for 48 hrs followed by MG132 addition and measured after 12 hrs by immunoblot analysis (reference value: 1.4). It counts as cell-based.
The target of data set [10] is DNA replication licensing factor MCM7 (Homo sapiens) (UniProt P33993). Put plainly: Induction of ubiquitination of MCM7 in human NCI-H1975 cells at 140 nM in presence of MG132 incubated for 48 hrs followed by MG132 addition and measured after 12 hrs by immunoblot analysis. The data set is classed as cell-based.
Sequence of DNA replication licensing factor MCM7 (Homo sapiens) (P33993 whole entry): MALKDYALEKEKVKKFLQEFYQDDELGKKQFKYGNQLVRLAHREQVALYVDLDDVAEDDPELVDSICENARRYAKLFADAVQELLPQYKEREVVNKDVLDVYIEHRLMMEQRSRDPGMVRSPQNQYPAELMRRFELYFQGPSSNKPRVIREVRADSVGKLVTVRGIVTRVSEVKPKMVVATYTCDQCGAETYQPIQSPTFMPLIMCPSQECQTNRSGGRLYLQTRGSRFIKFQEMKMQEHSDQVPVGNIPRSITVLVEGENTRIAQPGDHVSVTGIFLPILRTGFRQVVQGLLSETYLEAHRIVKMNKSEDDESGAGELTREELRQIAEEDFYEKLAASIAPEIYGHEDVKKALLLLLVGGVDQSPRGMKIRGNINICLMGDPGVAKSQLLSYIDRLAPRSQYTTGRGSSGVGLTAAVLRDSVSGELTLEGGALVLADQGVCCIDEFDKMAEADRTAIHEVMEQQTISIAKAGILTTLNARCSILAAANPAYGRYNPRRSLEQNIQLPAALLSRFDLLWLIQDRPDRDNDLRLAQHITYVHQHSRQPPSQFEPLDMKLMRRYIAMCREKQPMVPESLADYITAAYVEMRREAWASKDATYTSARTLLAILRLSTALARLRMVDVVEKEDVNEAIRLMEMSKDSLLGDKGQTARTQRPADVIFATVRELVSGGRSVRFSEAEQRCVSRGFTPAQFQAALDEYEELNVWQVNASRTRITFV
Data set [11] deals with NCI-H1975. Put plainly: Antitumor activity against human NCI-H1975 cells xenografted in athymic nude BALB/c mouse assessed as delay in tumor growth at 1 or 4 mg/kg, ip administered for 4 weeks. It counts as functional, organism-based. For orientation: In xenograft studies the graft and the host belong to different species.
The target of data set [12] is T1, DNA replication licensing factor MCM5 (Homo sapiens) (UniProt P33992).
T1 sequence (whole entry): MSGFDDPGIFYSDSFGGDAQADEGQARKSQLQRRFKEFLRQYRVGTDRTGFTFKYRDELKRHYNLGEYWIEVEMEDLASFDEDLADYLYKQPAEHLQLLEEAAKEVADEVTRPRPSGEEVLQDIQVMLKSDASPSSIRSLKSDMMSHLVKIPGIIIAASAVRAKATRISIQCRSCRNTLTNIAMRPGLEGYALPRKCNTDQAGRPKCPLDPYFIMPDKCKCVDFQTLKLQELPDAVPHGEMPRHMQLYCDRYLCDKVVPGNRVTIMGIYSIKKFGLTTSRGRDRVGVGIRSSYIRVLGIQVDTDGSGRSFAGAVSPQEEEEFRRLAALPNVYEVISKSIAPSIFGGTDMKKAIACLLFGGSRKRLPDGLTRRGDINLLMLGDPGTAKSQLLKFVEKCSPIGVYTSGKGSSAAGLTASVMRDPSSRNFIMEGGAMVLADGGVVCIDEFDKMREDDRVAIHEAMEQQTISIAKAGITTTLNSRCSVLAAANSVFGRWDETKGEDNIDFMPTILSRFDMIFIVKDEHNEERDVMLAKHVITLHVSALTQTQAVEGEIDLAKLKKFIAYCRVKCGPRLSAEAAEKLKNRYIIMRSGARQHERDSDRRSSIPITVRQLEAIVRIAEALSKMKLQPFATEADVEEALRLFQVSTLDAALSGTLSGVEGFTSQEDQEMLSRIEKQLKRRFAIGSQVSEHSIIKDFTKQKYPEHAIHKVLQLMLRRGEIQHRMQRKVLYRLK
As to the kind of experiment: Induction of ubiquitination of MCM5 in human NCI-H1975 cells incubated for 72 hrs by immunoblot analysis (reference value: 1). It counts as cell-based.

Data set [13] is described as follows: Toxicity in athymic nude BALB/c mouse xenografted with human NCI-H1975 cells assessed as effect on serum blood urea nitrogen at 1 or 4 mg/kg, ip administered for 4 weeks. The data set is classed as organism-based. The note with it: in vivo, 672 h.
A short description of data set [14]: Toxicity in athymic nude BALB/c mouse xenografted with human NCI-H1975 cells assessed as effect on liver at 1 or 4 mg/kg, ip administered for 4 weeks. The data set is classed as organism-based. The note with it: in vivo, 672 h.
Data set [15] addresses T1, DNA replication licensing factor MCM5 (Homo sapiens). Put plainly: Induction of ubiquitination of MCM5 in human NCI-H1975 cells incubated for 24 hrs by immunoblot analysis (reference value: 1). It counts as cell-based.
Data set [16] deals with T2, DNA replication licensing factor MCM4 (Homo sapiens) (UniProt P33991).
T2 sequence (whole entry): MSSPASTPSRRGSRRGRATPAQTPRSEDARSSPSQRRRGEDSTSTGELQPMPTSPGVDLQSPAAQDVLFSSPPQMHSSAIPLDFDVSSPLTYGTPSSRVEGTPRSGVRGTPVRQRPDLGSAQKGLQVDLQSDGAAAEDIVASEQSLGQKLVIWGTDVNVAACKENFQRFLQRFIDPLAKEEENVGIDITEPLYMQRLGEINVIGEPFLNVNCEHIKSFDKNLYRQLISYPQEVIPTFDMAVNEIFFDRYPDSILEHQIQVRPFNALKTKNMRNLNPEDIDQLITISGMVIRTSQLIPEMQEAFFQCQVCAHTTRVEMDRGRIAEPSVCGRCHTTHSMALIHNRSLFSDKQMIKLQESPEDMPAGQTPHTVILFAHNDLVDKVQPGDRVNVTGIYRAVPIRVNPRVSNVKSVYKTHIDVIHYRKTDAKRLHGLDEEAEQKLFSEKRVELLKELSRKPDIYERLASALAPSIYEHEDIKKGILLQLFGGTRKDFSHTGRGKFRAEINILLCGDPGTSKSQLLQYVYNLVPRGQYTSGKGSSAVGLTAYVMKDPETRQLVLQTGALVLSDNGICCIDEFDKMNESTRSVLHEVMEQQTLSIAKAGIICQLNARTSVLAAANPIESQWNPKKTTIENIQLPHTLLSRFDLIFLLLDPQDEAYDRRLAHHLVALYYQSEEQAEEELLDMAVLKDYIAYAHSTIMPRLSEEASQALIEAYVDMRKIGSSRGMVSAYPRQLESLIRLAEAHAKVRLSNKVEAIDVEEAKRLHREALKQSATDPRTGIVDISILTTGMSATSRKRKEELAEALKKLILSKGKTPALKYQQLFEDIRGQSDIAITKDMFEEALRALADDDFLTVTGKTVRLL
Put plainly: Induction of ubiquitination of MCM4 in human NCI-H1975 cells incubated for 24 hrs by immunoblot analysis (reference value: 1). The data set is classed as cell-based.

Data set [17] relates to NCI-H1975. As to the kind of experiment: Antitumor activity against human NCI-H1975 cells xenografted in athymic nude BALB/c mouse assessed as tumor growth inhibition at 4 mg/kg, ip administered for 4 weeks relative to control. It counts as functional. The note with it: 672 h, read-out: TGI.

The IC50 is the concentration that inhibits the measured activity by half. Regarding `Cc1oc2c(c1C(=O)NCCCn1ccnc1)C(=O)c1ccccc1C2=O`, the outcome in data set [1], in data set [4], in data set [8], in data set [10] and in [11] was Active. The IC50 in data set [2] was under 100 nM. For the same compound, the Activity result is “Non-Toxic” in [3]; 38% in data set [5]; 48.8 in [6]; 0.3 in [7]; 1.6 in data set [9]; 0.8 in data set [12]. Moreover, the Activity entry in [13] was “Non-Toxic”; in data set [14] it was “Non-Toxic”; in data set [15], 0.8; in [16] it was 0.4. Also, the inhibition in vivo at 4 mg/kg in data set [17] worked out at 59%.
